The values below come from patent US9586968B2, “Bicycloamine-substituted-N-benzenesulfonamide compounds with selective activity in voltage-gated sodium channels” (Merck Sharp & Dohme Corp., priority 2013, dated 2017).

For one assay, the target named is T1, human Nav1.5 (Homo sapiens, UniProt Q14524).
T1 construct: expressed in transfected cells
As to the kind of experiment: PatchXpress automated patch-clamp, inactivated state block of Nav1.5 (selectivity). Type of assay: cell-based. As to conditions: determined by PatchXpress measurement, HEK 293 cells. As to the method:
(§1) Compounds were tested on human Nav1.7 and Nav1.5 channels stably expressed in HEK 293 cells. Activity toward Nav 1.7 and Nav 1.5 channels was assessed using the following assay methodology.
(§2) Sodium Current Measurements on the PatchXpress 7000®:
(§3) To measure inactivated state block of sodium channels, test compounds were characterized in an automated PatchXpress® assay (Molecular Devices) using a double-pulse protocol on human Nav1.7 and Nav1.5 channels stably expressed in HEK 293 cells. Cells were held at a potential 20 mV negative to V0.5 inact. An 8000 ms pre-pulse 7 mV positive to V0.5 inact was given followed by a hyperpolarizing 2 ms pulse to −120 mV and a 20 ms test pulse to −20 mV. Protocol was applied to cells in the absence, presence of compound and after washout. The temperature of PatchXpress instruments was maintained at 22° C. The following recording solutions were used. Internal solution (mM): 30 CsCl, 5 HEPES, 10 EGTA, 120 CsF, 5 NaF, 2 MgCl2. External solution (mM): 120 NMDG, 40 NaCl, 1 KCl, 0.5 MgCl2, 5 HEPES, 2.7 CaCl2.
(§4) For all electrophysiology experiments, offline analysis was used to correct for current rundown and to determine percent inhibition as a function of drug concentration. IC50 values were determined by fitting to the Hill equation.

In a further assay the target is T2, human Nav1.7 (Homo sapiens, UniProt Q15858).
T2 construct: expressed in transfected cells
As to the kind of experiment: PatchXpress automated patch-clamp, inactivated state block of Nav1.7. Type of assay: cell-based. As to conditions: channels stably expressed in HEK 293 cells, 22° C., read-out: potency for the Nav 1.7 sodium ion channel (as measured by PatchXpress). The method, then: as §1, §2, §3, §4

T1 sequence (Q14524 whole entry): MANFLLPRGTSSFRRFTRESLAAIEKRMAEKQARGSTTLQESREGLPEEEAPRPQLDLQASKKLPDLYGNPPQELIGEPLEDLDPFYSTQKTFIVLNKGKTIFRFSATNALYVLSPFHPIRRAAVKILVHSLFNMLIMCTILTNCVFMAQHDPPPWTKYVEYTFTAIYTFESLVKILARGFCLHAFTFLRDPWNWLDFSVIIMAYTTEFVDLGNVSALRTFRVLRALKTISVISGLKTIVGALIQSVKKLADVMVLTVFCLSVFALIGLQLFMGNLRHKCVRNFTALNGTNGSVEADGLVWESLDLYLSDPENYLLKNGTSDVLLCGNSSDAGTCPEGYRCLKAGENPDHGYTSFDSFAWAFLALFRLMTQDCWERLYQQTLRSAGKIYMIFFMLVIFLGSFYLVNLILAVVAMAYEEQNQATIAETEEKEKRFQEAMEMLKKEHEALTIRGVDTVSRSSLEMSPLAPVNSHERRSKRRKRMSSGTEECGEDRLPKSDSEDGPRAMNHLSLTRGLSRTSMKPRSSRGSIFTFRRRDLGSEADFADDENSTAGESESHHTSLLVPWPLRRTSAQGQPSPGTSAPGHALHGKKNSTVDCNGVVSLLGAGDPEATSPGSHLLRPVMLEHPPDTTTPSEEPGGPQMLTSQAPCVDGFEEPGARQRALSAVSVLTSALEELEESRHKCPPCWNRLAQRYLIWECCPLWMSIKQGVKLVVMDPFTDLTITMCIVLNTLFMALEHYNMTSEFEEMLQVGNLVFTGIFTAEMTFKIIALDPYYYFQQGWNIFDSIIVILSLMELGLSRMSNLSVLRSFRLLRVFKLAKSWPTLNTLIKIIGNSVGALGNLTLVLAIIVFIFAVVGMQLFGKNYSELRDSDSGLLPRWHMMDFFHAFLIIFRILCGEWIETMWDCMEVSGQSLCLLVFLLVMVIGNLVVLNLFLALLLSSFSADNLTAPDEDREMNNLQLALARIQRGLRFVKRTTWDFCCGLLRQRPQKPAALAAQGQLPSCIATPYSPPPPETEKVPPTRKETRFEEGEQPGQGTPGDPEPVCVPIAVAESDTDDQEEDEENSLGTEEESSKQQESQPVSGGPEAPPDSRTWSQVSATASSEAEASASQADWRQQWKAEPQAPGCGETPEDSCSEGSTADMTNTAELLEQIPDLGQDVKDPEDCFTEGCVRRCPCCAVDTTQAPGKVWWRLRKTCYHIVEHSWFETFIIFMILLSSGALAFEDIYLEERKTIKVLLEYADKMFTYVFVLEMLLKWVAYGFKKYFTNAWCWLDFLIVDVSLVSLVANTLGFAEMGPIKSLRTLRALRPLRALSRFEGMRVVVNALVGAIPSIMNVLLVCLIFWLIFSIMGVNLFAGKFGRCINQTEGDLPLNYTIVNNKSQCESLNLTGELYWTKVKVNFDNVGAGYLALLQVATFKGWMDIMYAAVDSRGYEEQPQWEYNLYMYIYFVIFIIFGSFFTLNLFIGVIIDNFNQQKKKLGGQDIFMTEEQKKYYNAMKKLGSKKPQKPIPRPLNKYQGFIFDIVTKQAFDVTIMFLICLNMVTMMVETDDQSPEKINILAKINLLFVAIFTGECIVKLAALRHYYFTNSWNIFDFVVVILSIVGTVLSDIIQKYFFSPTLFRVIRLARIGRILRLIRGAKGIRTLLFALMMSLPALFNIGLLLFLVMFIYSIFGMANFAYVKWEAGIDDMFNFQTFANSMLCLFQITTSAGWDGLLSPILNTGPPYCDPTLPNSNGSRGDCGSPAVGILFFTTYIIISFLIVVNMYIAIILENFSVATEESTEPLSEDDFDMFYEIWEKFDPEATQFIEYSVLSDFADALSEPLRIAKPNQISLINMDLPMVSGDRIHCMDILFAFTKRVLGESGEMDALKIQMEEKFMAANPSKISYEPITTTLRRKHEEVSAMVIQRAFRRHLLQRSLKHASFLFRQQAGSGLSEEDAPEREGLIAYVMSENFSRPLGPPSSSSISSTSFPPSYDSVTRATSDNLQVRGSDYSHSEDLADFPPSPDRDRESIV
T2 sequence (Q15858 whole entry): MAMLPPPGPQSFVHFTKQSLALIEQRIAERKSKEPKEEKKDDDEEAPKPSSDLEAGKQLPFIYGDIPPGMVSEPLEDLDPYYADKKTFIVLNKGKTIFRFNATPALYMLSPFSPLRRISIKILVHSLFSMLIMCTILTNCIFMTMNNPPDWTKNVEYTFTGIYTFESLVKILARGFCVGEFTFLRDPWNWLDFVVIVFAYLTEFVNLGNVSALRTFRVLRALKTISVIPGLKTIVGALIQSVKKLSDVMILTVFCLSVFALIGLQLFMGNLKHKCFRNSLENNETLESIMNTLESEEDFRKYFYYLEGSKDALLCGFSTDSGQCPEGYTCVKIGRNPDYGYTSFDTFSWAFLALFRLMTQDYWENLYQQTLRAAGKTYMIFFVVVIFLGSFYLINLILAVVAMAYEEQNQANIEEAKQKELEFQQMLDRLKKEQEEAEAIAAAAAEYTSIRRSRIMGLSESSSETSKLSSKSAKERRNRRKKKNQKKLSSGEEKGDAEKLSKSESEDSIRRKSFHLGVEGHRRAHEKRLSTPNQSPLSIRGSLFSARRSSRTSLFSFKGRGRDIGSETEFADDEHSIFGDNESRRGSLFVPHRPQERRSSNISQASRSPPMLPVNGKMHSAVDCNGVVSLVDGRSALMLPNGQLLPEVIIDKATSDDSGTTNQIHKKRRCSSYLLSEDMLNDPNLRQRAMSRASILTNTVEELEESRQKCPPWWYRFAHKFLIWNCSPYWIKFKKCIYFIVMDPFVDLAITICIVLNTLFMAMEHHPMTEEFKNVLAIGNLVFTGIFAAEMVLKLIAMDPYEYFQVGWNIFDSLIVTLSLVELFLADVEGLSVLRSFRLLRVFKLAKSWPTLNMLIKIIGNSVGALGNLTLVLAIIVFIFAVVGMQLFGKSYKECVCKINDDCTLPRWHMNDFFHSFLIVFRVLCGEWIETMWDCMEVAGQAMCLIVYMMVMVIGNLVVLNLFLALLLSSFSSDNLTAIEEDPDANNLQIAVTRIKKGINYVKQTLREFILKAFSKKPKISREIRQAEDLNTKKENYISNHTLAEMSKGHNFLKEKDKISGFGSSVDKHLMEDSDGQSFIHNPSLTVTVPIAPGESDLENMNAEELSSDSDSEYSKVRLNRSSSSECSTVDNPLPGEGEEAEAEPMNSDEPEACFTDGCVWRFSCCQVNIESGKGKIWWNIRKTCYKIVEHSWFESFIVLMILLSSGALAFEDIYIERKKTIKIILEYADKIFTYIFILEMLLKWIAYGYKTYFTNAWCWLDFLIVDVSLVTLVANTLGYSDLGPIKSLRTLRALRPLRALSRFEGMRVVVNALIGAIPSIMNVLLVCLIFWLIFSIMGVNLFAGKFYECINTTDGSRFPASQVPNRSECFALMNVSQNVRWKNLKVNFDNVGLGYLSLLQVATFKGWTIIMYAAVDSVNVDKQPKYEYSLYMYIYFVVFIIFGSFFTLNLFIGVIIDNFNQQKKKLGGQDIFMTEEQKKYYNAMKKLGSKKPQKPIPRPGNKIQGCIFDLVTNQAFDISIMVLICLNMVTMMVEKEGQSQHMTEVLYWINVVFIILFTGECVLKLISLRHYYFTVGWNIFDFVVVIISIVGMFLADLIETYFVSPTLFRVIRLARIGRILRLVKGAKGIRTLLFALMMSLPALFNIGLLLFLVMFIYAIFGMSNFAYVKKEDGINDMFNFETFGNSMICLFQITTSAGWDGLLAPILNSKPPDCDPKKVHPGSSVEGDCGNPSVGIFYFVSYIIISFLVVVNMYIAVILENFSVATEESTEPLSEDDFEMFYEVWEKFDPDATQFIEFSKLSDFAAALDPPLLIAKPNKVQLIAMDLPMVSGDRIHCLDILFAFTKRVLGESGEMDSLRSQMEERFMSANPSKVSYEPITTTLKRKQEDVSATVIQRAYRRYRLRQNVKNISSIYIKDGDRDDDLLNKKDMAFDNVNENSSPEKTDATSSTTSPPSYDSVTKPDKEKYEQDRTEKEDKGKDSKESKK

For the compound `O=S(=O)(Nc1nccs1)c1cc(Cl)c(NCC23CCCCN2CCC3)cc1F` (single isomer, unassigned) [Ex17-7-B, (R or S) 5-chloro-2-fluoro-4-(((octahydroindolizin-8a-yl)methyl)amino)-N-(thiazol-2-yl)benzenesulfonamide], the “ratio of Nav1.7 potency:Nav 1.5 potency” value at human Nav1.5 is on record as 193. At human Nav1.7, the IC50 was determined as 0.185 µM.

For the compound `CCc1cc(S(=O)(=O)Nc2nccs2)c(F)cc1NC[C@@]12CCCN1C[C@H](Cc1ccc(OC)cc1)C2` (single isomer, unassigned) [Ex18-5-A], at human Nav1.5, the “ratio of Nav1.7 potency:Nav 1.5 potency” value stood at 315. Moreover, the IC50 on human Nav1.7 is 0.009 µM.

On to `CCc1cc(S(=O)(=O)Nc2nccs2)c(F)cc1NC[C@]12CCCN1C[C@@H](Cc1ccc(OC)cc1)C2` (single isomer, unassigned) [Ex18-5-B], for which the “ratio of Nav1.7 potency:Nav 1.5 potency” value on human Nav1.5 is 359. Also, the IC50 at human Nav1.7 amounted to 0.04 µM.

As for `CCc1cc(S(=O)(=O)Nc2nccs2)c(F)cc1NCC12CCCN1CC(C)(C)C2` (single isomer, unassigned) [Ex18-9-A, (S or R)-4-(((2,2-dimethylhexahydro-1H-pyrrolizin-7a-yl)-methyl)-amino)-5-ethyl-2-fluoro-N-(thiazol-2-yl)-benzenesulfonamide], at human Nav1.5, the “ratio of Nav1.7 potency:Nav 1.5 potency” value is reported as 548. The IC50 on human Nav1.7 was 0.055 µM.

On to `CCc1cc(S(=O)(=O)Nc2nccs2)c(F)cc1NCC12CCCN1CC(C)(C)C2` (single isomer, unassigned) [Ex18-9-B, (R or S)-4-(((2,2-dimethylhexahydro-1H-pyrrolizin-7a-yl)methyl)-amino)-5-ethyl-2-fluoro-N-(thiazol-2-yl)-benzenesulfonamide], for which, at human Nav1.5, the “ratio of Nav1.7 potency:Nav 1.5 potency” value was 1870. On human Nav1.7, the IC50 is 0.016 µM.

For `O=S(=O)(Nc1nncs1)c1cc(Cl)c(NCC23CCCN2CCC3)cc1F` [Ex1-5, 5-chloro-2-fluoro-4-[(tetrahydro-1H-pyrrolizin-7a(5H)-ylmethyl)amino]-N-(1,3,4-thiadiazol-2-yl)benzenesulfonamide], the “ratio of Nav1.7 potency:Nav 1.5 potency” value at human Nav1.5 amounted to 81. The IC50 at human Nav1.7 was determined as 0.37 µM.

As to `N#Cc1cc(S(=O)(=O)Nc2ncns2)ccc1NCC12CCCN1CCC2` [Ex1-6, 3-cyano-4-[(tetrahydro-1H-pyrrolizin-7a(5H)-ylmethyl)amino]-N-(1,2,4-thiadiazol-5-yl)benzenesulfonamide], the “ratio of Nav1.7 potency:Nav 1.5 potency” value on human Nav1.5 is on record as 349. Further, the IC50 at human Nav1.7 stood at 0.086 µM.

For `N#Cc1cc(S(=O)(=O)Nc2nccs2)c(F)cc1NCC12CCCN1CCC2` [Ex1-10, 5-cyano-2-fluoro-4-[(tetrahydro-1H-pyrrolizin-7a(5H)-ylmethyl)amino]-N-(1,3-thiazol-2-yl)benzenesulfonamide], the “ratio of Nav1.7 potency:Nav 1.5 potency” value at human Nav1.5 amounted to 94. Also, on human Nav1.7, the IC50 came to 0.221 µM.

With `N#Cc1cc(S(=O)(=O)Nc2ncc(Cl)s2)c(F)cc1NCC12CCCN1CCC2` [Ex1-11, N-(5-chloro-1,3-thiazol-2-yl)-5-cyano-2-fluoro-4-[(tetrahydro-1H-pyrrolizin-7a(5H)-ylmethyl)amino]benzene-sulfonamide], the “ratio of Nav1.7 potency:Nav 1.5 potency” value at human Nav1.5 is given as 469. The IC50 at human Nav1.7 is 0.035 µM.

For the compound `O=S(=O)(Nc1ncc(Br)s1)c1cc(Cl)c(NCC23CCCN2CCC3)cc1F` [Ex1-13, N-(5-bromothiazol-2-yl)-5-chloro-2-fluoro-4-(((hexahydro-1H-pyrrolizin-7a-yl)methyl)amino)benzene-sulfonamide], at human Nav1.5, the “ratio of Nav1.7 potency:Nav 1.5 potency” value is reported as 1507. Moreover, the IC50 on human Nav1.7 worked out at 0.043 µM.

As to `O=S(=O)(Nc1nccs1)c1ccc(NCC23CCCN2CCC3)c(Cl)c1` [Ex1-14, 3-chloro-4-(((hexahydro-1H-pyrrolizin-7a-yl)methyl)amino)-N-(thiazol-2-yl)benzenesulfonamide], the “ratio of Nav1.7 potency:Nav 1.5 potency” value on human Nav1.5 was 337. Moreover, at human Nav1.7, the IC50 was 0.048 µM.

`Cc1cc(S(=O)(=O)Nc2nccs2)c(F)cc1NCC12CCCN1CCC2` [Ex1-15, 2-fluoro-4-(((hexahydro-1H-pyrrolizin-7a-yl)methyl)amino)-5-methyl-N-(thiazol-2-yl)benzenesulfonamide]: the “ratio of Nav1.7 potency:Nav 1.5 potency” value on human Nav1.5 came out at 1149. In addition, the IC50 at human Nav1.7 amounted to 0.034 µM.

On to `CCOC(=O)c1cnc(NS(=O)(=O)c2cc(Cl)c(NCC34CCCN3CCC4)cc2F)s1` [Ex1-16, ethyl 2-(5-chloro-2-fluoro-4-(((hexahydro-1H-pyrrolizin-7a-yl)methyl)amino)phenylsulfonamido)thiazole-5-carboxylate], for which, on human Nav1.5, the “ratio of Nav1.7 potency:Nav 1.5 potency” value is listed as 484. Also, on human Nav1.7, the IC50 came out at 0.062 µM.

As to `O=S(=O)(Nc1nccs1)c1cc(Br)c(NCC23CCCN2CCC3)cc1F` [Ex1-17, 5-bromo-2-fluoro-4-(((hexahydro-1H-pyrrolizin-7a-yl)methyl)amino)-N-(thiazol-2-yl)benzenesulfonamide], at human Nav1.5, the “ratio of Nav1.7 potency:Nav 1.5 potency” value amounted to 670. For the same compound, on human Nav1.7, the IC50 is 0.005 µM.

For `O=S(=O)(Nc1nccs1)c1cc(F)c(NCC23CCCN2CCC3)cc1Cl` [Ex1-18, 2-chloro-5-fluoro-4-(((hexahydro-1H-pyrrolizin-7a-yl)methyl)amino)-N-(thiazol-2-yl)benzenesulfonamide], the “ratio of Nav1.7 potency:Nav 1.5 potency” value on human Nav1.5 came out at 462. The IC50 at human Nav1.7 is 0.129 µM.

For `O=S(=O)(Nc1nccs1)c1ccc(NCC23CCCN2CCC3)c(C(F)(F)F)c1` [Ex1-20, 4-(((hexahydro-1H-pyrrolizin-7a-yl)methyl)amino)-N-(thiazol-2-yl)-3-(trifluoromethyl)benzene-sulfonamide], the “ratio of Nav1.7 potency:Nav 1.5 potency” value on human Nav1.5 amounted to 765. On human Nav1.7, the IC50 was found to be 0.014 µM.

In the case of `N#Cc1cc(S(=O)(=O)Nc2nccs2)ccc1NCC12CCCN1CCC2` [Ex2-2, 3-cyano-4-[(tetrahydro-1H-pyrrolizin-7a(5H)-ylmethyl)amino]-N-(1,3-thiazol-2-yl)benzenesulfonamide], the “ratio of Nav1.7 potency:Nav 1.5 potency” value on human Nav1.5 turned out to be 746. The IC50 at human Nav1.7 came out at 0.04 µM.

With `N#Cc1cc(S(=O)(=O)Nc2cccc(F)n2)ccc1NCC12CCCN1CCC2` [Ex2-3, 3-cyano-N-(6-fluoropyridin-2-yl)-4-[(tetrahydro-1H-pyrrolizin-7a(5H)-ylmethyl)amino]benzene-sulfonamide], on human Nav1.5, the “ratio of Nav1.7 potency:Nav 1.5 potency” value came out at 18. Moreover, at human Nav1.7, the IC50 came out at 0.168 µM.

In the case of `O=S(=O)(Nc1cccc(F)n1)c1cc(F)c(NCC23CCCN2CCC3)cc1F` [Ex2-4, 2,5-difluoro-N-(6-fluoropyridin-2-yl)-4-[(tetrahydro-1H-pyrrolizin-7a(5H)-ylmethyl)amino]benzene-sulfonamide], the “ratio of Nav1.7 potency:Nav 1.5 potency” value at human Nav1.5 worked out at 269. The IC50 at human Nav1.7 is 0.35 µM.

For `N#Cc1cc(S(=O)(=O)Nc2ncc(Cl)s2)ccc1NCC12CCCN1CCC2` [Ex3-4, N-(5-chloro-1,3-thiazol-2-yl)-3-cyano-4-[(tetrahydro-1H-pyrrolizin-7a(5H)-ylmethyl)amino]benzene-sulfonamide], at human Nav1.5, the “ratio of Nav1.7 potency:Nav 1.5 potency” value is 199. In addition, the IC50 on human Nav1.7 is 0.151 µM.

Take `O=S(=O)(Nc1cccnn1)c1cc(Cl)c(NCC23CCCN2CCC3)cc1F` [Ex3-5, 5-chloro-2-fluoro-N-(pyridazin-3-yl)-4-[(tetrahydro-1H-pyrrolizin-7a(5H)-ylmethyl)amino]benzene-sulfonamide]: on human Nav1.5, the “ratio of Nav1.7 potency:Nav 1.5 potency” value was found to be 100. Moreover, the IC50 on human Nav1.7 was found to be 1 µM.
